# US10799605B2 (3B PHARMACEUTICALS GMBH, priority 2014, dated 2020)
# Where two headings read alike, the source gives them in different places.
# Assays:
# NTR1 [1] = target: T1, NTR1 (Homo sapiens (Human), UniProt P30989); experiment: Functional Ca2+ mobilisation assay (example part I); type: cell-based
# HT29 cells = settings: 48 h
# B1R = B1R (Homo sapiens (Human), UniProt P46663); experiment: Radioligand binding assay B1R (bradykinin B1 receptor); settings: read-out: Inhibition [at 100 nM, %]
# B1R, sequence (P46663 whole entry): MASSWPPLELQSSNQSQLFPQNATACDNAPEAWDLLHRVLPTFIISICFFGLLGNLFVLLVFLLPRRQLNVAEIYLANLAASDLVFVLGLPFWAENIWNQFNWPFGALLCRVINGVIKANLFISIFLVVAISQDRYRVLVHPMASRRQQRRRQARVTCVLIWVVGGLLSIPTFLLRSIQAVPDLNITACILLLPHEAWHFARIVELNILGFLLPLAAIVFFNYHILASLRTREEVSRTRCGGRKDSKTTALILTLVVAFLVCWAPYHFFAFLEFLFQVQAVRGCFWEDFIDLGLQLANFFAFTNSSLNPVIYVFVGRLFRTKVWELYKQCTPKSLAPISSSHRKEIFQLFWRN
# Protocol: (§1) In order to determine the binding affinity of compounds comprising a radiolabel for B1R, a radioligand binding assay was carried out. A radioligand is a radioactive biochemical substance that is used for diagnosis or for research-oriented study of cellular receptor systems of the body. In […] systems it is often used to quantify the binding of a test molecule to the binding site of radioligand. The higher the affinity of the molecule, the more radioligand is displaced from the binding site. The amount of bound radioligand can be measured by scintillation counting and thereby quantified. This assay is commonly used to calculate binding constants of molecules to receptors.
# The B1R radioligand binding assay was performed by Cerep (Celle l'Evescault, France; Catalog reference 1189) according to (Jones et al., Eur J Pharmacol, 1999, 374, 423-433). B1R was prepared from CHO cells recombinantly expressing the human receptor and incubated with 0.35 nM [^3H]desArg^10-KD and serial dilutions of the test compounds. After 60 min incubation at 4° C. and washing to remove unbound ligand, bound radioactivity was measured by scintillation counting.
# NTR1 [2] = target: T1, NTR1; experiment: Functional Ca2+ mobilisation assay (example part II); type: cell-based; settings: antagonist assay
# Outline: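 HT29 or NTR1-expressing HEK293 cells loaded with Ca5 dye for 1 h at 37 °C in buffer at pH 7.4, and fluorescence recorded for about 90 s after addition. EC50 derived from agonist serial dilutions; IC50 from antagonists pre-incubated 30 min before an EC80 agonist challenge.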
# NTR1 [3] = target: T1, NTR1; experiment: Radioligand binding assay NTR1 (example part II); settings: 0.05 nM 125I-(Tyr3-neurotensin), 60 min at 4° C.; read-out: IC50 [nM] RLB
# Protocol: as §1, with “NTR1,” for “B1R,”
# The NTR1 radioligand binding assay was performed by Cerep (Celle l'Evescault, France; Catalog reference 0109) according to Vita et al., FEBS Lett., 1993, 317, 139-142. NTR1 was prepared from CHO cells recombinantly expressing the human receptor and incubated with 0.05 nM ^125I-(Tyr^3-neurotensin) and serial dilutions of the test compounds. […] The result for each test compound is expressed as IC50 concentration and provides a measure for the affinity of the test compound for NTR1.
# [4] = Plasma stability assay, mouse plasma; type: in vitro ADME
# Protocol: (§2) The plasma stability assay was performed to measure the degradation of compounds of the present invention in plasma. This is an important characteristic of a compound as compounds, with the exception of pro-drugs, which rapidly degrade in plasma generally show poor in vivo efficacy.
# (§3) The plasma was spiked with a 10 mM analyte solution in dimethyl sulfoxide to a final concentration of 10 μM, vortexed, and aliquotted to 50 μl samples. Two aliquots were stored at −20° C. until further treatment. Another two aliquots were incubated using an Eppendorf Thermomixer at 37° C. for 1, 4, and 24 hours. Sample clean-up was performed using a protein precipitation plate (Phenomenex Strata Impact, 64722-1-324-1) and using acetonitrile as precipitation agent. […] An aliquot of 10 μl was diluted with 90 μl 0.1% aqueous trifluoroacetic acid solution. The determination of the analyte in the clean sample solutions was performed on a Thermo TSQ Quantum Ultra triple quadrupole mass spectrometer equipped with a thermo Surveyor HPLC. The chromatographic separation was carried out on a Phenomenex Kinetex XB-C18 HPLC column (50×2 mm, […] particle size) with gradient elution using a mixture of 0.01% trifluoroacetic acid and 0.05% formic acid in water as eluent A and methanol as eluent B (20% B to 100% in 8 min, 400 μl/min, 40° C.). For mass spectrometric detection the selected reaction monitoring (SRM) was used.
# (§4) Quantitation was performed by external matrix calibration using an internal standard.
# [5] = Plasma stability assay, human plasma; type: in vitro ADME
# Protocol: as §2, §3, §4
# [6] = in vivo; cited from earlier work
# CCR1 (h) = target: T2, CCR1 (h) (Homo sapiens (Human), UniProt P32246); experiment: ExpresSProfile: C-C chemokine receptor type 1, agonist radioligand; type: binding; settings: Reference Compound
# T2 sequence (P32246 whole entry, looked up): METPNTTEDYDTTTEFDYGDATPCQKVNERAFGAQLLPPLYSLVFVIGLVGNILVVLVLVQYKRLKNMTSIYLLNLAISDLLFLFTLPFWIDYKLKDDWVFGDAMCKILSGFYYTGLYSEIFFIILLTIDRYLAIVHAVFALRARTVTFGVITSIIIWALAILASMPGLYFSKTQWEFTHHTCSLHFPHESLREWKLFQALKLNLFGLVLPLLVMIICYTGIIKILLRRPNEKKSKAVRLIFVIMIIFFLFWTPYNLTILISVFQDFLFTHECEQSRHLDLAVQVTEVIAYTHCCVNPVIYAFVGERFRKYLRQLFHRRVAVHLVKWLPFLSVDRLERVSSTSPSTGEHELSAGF
# T1 sequence (P30989 whole entry): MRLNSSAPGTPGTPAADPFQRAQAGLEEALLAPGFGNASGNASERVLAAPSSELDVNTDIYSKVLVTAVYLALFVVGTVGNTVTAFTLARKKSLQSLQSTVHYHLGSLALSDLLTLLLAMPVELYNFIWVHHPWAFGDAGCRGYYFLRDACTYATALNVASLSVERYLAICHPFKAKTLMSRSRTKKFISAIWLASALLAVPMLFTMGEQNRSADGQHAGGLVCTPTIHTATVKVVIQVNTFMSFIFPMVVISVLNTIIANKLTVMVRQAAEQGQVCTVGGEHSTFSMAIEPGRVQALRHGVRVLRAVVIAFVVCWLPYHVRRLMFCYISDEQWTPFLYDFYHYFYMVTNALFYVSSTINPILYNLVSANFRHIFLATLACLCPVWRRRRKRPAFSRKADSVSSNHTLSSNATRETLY
molecule,measurement,setting,value
"COc1cccc(OC)c1-c1cc(C(=O)NC2(C(=O)O)C3CC4CC(C3)CC2C4)nn1-c1ccc(C(=O)N(C)CCCN(C)CCCN(C)C(=O)CCCC(=O)NCCCCC(NC(=O)CCC(=O)NCCCOCCOCCOCCCNC(=O)C(CCCCNC(=O)CCC(=O)O[C@@H](C(=O)O[C@H]2C[C@@]3(O)[C@@H](OC(=O)c4ccccc4)[C@@H]4[C@]5(OC(C)=O)CO[C@@H]5C[C@H](O)[C@@]4(C)C(=O)[C@H](OC(C)=O)C(=C2C)C3(C)C)[C@@H](NC(=O)c2ccccc2)c2ccccc2)NC(=O)CCC(=O)NCCCOCCOCCOCCCNC(=O)CCCC(=O)N(C)CCCN(C)CCCN(C)C(=O)c2ccc(-n3nc(C(=O)NC4(C(=O)O)C5CC6CC(C5)CC4C6)cc3-c3c(OC)cccc3OC)c(C(C)C)c2)C(N)=O)cc1C(C)C (some centres unmarked) [(20), 1206-Glutar-Ttds-Lys(Taxol-Succinyl)-Ttds-(ε-Lys-NH2)-Glutar-1206]",EC50,NTR1 [1],> 50000 nM
same,IC50,NTR1 [1],32 nM
same,Concentration [μM] at 20% cytotoxicity,"HT29 cells; HT29 cells, LDH in supernatant",18 µM
"COc1cccc(OC)c1-c1cc(C(=O)NC2(C(=O)O)C3CC4CC(C3)CC2C4)nn1-c1ccc(C(=O)N(C)CCCN(C)CCCN(C)C(=O)CCCC(=O)NCCCOCCOCCOCCCNC(=O)CCC(=O)N[C@@H](CCCCNC(=O)CN2CCN(CC(=O)O)CCN(CC(=O)O)CCN(CC(=O)O)CC2)C(=O)NCCCOCCOCCOCCCNC(=O)CCC(=O)N[C@@H](CCCCN)C(=O)N[C@@H](CCCNC(=N)N)C(=O)N2CCC[C@H]2C(=O)N2C[C@H](O)C[C@H]2C(=O)NCC(=O)N[C@@H](CC2CCCCC2)C(=O)N[C@@H](CO)C(=O)N2CCC[C@H]2C(=O)N[C@@H](CC(C)C)C(=O)O)cc1C(C)C (stereo partly drawn) [(26), 1206-Glutar-Ttds-Lys(DOTA)-Ttds-GABA-Lys-Arg-Pro-Hyp-Gly-Cha-Ser-Pro-Leu-OH]",inhibition at 0.1 µM,B1R,20%
"CC[C@H](C)[C@H](NC(=O)[C@@H](Cc1ccc2ccccc2c1)NC(=O)[C@H](CO)NC(=O)[C@](C)(Cc1ccccc1)NC(=O)CNC(=O)[C@@H]1CCCN1C(=O)[C@@H]1C[C@@H]2CCCC[C@@H]2N1C(=O)[C@H](CCCNC(=N)N)NC(=O)[C@H](CCCN)NC(=O)CCC(=O)NCCCOCCOCCOCCCNC(=O)[C@H](CCCCNC(=O)CN1CCN(CC(=O)O)CCN(CC(=O)O)CCN(CC(=O)O)CC1)NC(=O)CCC(=O)NCCCOCCOCCOCCCNC(=O)CCCC(=O)N(C)CCCN(C)CCCN(C)C(=O)c1ccc(-n2nc(C(=O)NC3(C(=O)O)C4CC5CC(C4)CC3C5)cc2-c2c(OC)cccc2OC)c(C(C)C)c1)C(=O)O (stereo partly drawn) [(27), 1206-Glutar-Ttds-Lys(DOTA)-Ttds-GABA-Orn-Arg-Oic-Pro-Gly-Amf-Ser-nal-Ile-OH]",inhibition at 0.1 µM,B1R,17%
"COc1cccc(OC)c1-c1cc(C(=O)NC2(C(=O)O)C3CC4CC(C3)CC2C4)nn1-c1ccc(C(=O)N(CCCNC(=O)CN2CCN(CC(=O)O)CCN(CC(=O)O)CCN(CC(=O)O)CC2)CCCN(C)C)cc1C(C)C (centres unmarked) [(Va), 2-{[1-{4-[(3-DOTA-amino-propyl)-(3-dimethylamino-propyl)-carbamoyl]-2-isopropyl-phenyl}-5-(2,6-dimethoxy-phenyl)-1H-pyrazole-3-carbonyl]-amino}-adamantane-2-carboxylic acid]",IC50,NTR1 [2],12.6 nM
same,IC50,NTR1 [3],3.4 nM
same,stability in mouse plasma,[4],highly stable
same,"% remaining after 24 h incubation, Mouse plasma","[4]; 10 μM, 37° C., 24 h",>60%
same,stability in human plasma,[5],highly stable
same,"% remaining after 24 h incubation, Human plasma","[5]; 10 μM, 37° C., 24 h",>70%
"CC(=O)O[C@H]1C(=O)[C@@]2(C)[C@H]([C@H](OC(=O)c3ccccc3)[C@]3(O)C[C@H](OC(=O)[C@H](O)[C@@H](NC(=O)c4ccccc4)c4ccccc4)C(C)=C1C3(C)C)[C@]1(OC(C)=O)CO[C@@H]1C[C@@H]2O [Paclitaxel, reference compound]",Concentration [μM] at 20% cytotoxicity,HT29 cells; human,70 µM
"COc1cccc(OC)c1-c1cc(C(=O)NC2(C(=O)O)C3CC4CC(C3)CC2C4)nn1-c1ccc(C(=O)N(C)CCCN(C)C)cc1C(C)C (centres unmarked) [SR142948, 2-[(5-(2,6-Dimethoxy-phenyl)-1-{4-[(3-dimethylamino-propyl)-methyl-carbamoyl]-2-isopropyl-phenyl}-1H-pyrazole-3-carbonyl)-amino]-adamantane-2-carboxylic acid]",blood-brain barrier crossing,[6],cross the blood-brain barrier
MIP-1alpha,nH Ref,CCR1 (h),1.1
